Experiments:
horses = assay: Target Animal Safety (TAS) study / toxicity of formulations in horses; type: in vivo; settings: E-4021 containing meglumine, compared to E-4021 containing propylene glycol
Excerpt: The drug product vehicle contains about 35-45 wt % alcohol, 46 wt % propylene glycol and 10 wt % WFI. […] Test doses (in horses) with the vehicle confirmed that the dose toxicity was due to the vehicle. More specifically, propylene glycol was believed to be the cause of toxicity.

exercising horses [1] = assay: Simulated race test (SRT) on high-speed treadmill; type: in vivo
Excerpt: The purpose of this study was to determine the effects of intravenous administration of E-4021 on cardiorespiratory variables in exercising horses to facilitate the selection of a product dose for the control of hemorrhage associated with Exercise Induced Pulmonary Hemorrhage (EIPH). The formulation given was the propylene glycol formulation of Table 1.
Animals: The Rutgers University Institutional Animal Care and Facilities Committee approved all methods and procedures used in this experiment. Eight mature unfit Standardbred horses, 4 geldings and 4 mares were used in this study. The horses were healthy and acceptable for the study as determined by the study veterinarian. All horses underwent a physical examination to establish suitability for inclusion within the study. This included a physical examination and body weights. All of the horses were dewormed and vaccinated per standard veterinary practice. Animals were fed a maintenance ration of alfalfa/grass hay ad libitum and concentrate as needed. Water and mineral blocks were provided ad libitum. The horses were housed individually in 3×3 m stalls between 1600 to 0700 hours. They then performed their daily exercise followed by turnout in groups of 4 in 2 acres dry lot paddocks for ˜7 hrs/day.
General Study Design: There were four phases in this study detailed below. The horses performed conditioning exercise 4 d/week in a motorized equine exercise machine (Equi-cizer, Calgary, Canada) and heavy exercise 1 d/week on a high-speed treadmill (Sato I, Lexington Ky.) during Phase I. Heavy exercise prepared the horses for the later exercise tests performed during Phase Ib, Phase II, and Phase III of the experiment. The exercise tests were performed in the place of the heavy exercise training during those later three periods.
Phase II: This was the first part of the main study with test-article dosing of the horses (Weeks ≥12). This part of the experiment was conducted using a randomized semi-crossover design with each horse undergoing a control round within the first two weeks of the phase. Horses were randomly assigned to one of five treatments (CON; 50-45; 100-45; 50-90; 100-90). Control (CON) where no drug was administered; 50-45 where they were tested 45 minutes after receiving a dose of 50 mg; 100-45 where they were tested 45 minutes after receiving 100 mg of the test-article; 50-90 where they were tested 90 minutes after receiving a 50 mg dose; and 100-90 where they were tested 90 minutes after receiving a 100 mg dose. For this phase, the horses ran a simulated race test (SRT) every week on the heavy exercise days. Group A (n=4) horses ran their tests on Thursdays (mornings) and Group B (n=4) horses ran their tests on Fridays (mornings). All horses continued with light and moderate exercise as indicated for the other study days.
Phase III: This was the second part of the main study. This part of the experiment was conducted using a randomized crossover design where horses were initially assigned to one of four treatments (CON-B; 100-90B; 150-90; 200-90). Control (CON-B) where the horses received no drug; 100-90B where they were tested 90 minutes after receiving a 100 mg dose; 150-90 where they were tested 90 minutes after receiving a 150 mg dose; and 200-90 where they were tested 90 minutes after receiving a 200 mg dose. As with the other treatment phase the horses ran a weekly simulated race test (SRT) on the heavy exercise days. Group A (n=4) horses ran their tests on Thursdays (mornings) and Group B (n=4) horses ran their tests on Fridays (mornings).
Simulated Race Test (SRT): During the SRT, each horse ran at a speed calculated to correspond to 110% of the speed required to produce maximal oxygen uptake as measured during the GXTs performed during Phase Ib. […] Hemodynamic measurements were recorded, and blood samples were obtained to correspond with the end of the warm-up, at 1 minute and 2 minutes of the high-speed run, and at the end of the recovery period. […]

[2] = Pharmacokinetic study, plasma and urine concentrations; type: in vivo, horses
Experimental: A pharmacokinetic (PK) study was conducted in six horses, namely three mares, two geldings and one stallion. The study measured plasma and urine concentrations of E-4021 (EIPHISOL®) after IV administration of 100 mg of E-4021 per horse. Plasma samples were collected pretreatment and then at 10, 20 and 30 minutes and 1, 1.5, 2, 2.5, 3, 3.5, 4, 4.5, 5, 5.5, 6, 8, 12, 17, 24 and 30 hours post administration. […] The mean area under the concentration-time curve extrapolated to infinity (AUC0-∞) was 217±83.5 hr*ng/mL. The mean volume of distribution (V) was 6.06±3.99 L/kg.
Urine was collected for assaying E-4021 during four intervals: (1) a pre-dose sample collected from approximately −24 hours through 0 hours, (2) a 0 hour to 12 hour post-dose sample, (3) a 12 hour to 24 hour post-dose sample, and, (4) a 24 hour to 36 hour-post dose sample. There was wide variability in the concentration of E-4021 measured in urine, with maximum concentration ranging from 130-974 ng/mL. […] E-4021 concentration in urine remained above the quantitation limit (3 ng/mL) for four of the six horses at 36 hours post-dose.

exercising horses [3] = assay: Simulated race test (SRT) on high-speed treadmill; type: in vivo; remark: listed apart in the source
[4] = 100 mg (15005, meglumine) 90 min prior to SRT
[5] = 100 mg (16006, meglumine), 90 min., 4 hrs., 24 hrs. and 48 hrs. post-injection

Substance: sodium 1-[6-chloro-4-(3,4-methylenedioxybenzyl)-aminoquinazolin-2-yl]piperidine-4-carboxylate sesquihydrate [E-4021]
- Renal toxicity or blood in the urine (horses): did not have renal toxicity or blood in the urine
- Attenuation of increased exercise-related pulmonary vascular pressures (exercising horses [1]; 100 mg (approximately 500 kg horse), 90 minutes prior to intense exercise): greatest attenuation
- Lower PA pressure after 2 min intense exercise (exercising horses [1]; 100 mg dose given at 90 min, Phase II and III): ~30 mm Hg
- Magnitude of PA pressure, 100 mg vs. 150 mg vs. 200 mg trials (exercising horses [1]; 90 min before exercise, P>0.05, sesquihydrate): no differences
- Lower PAP (exercising horses [1]; Example 8, 100 mg at 90 minutes before exercise, propylene glycol formulation): ~30 mmHg
- Mean pulmonary artery pressures compared to control (exercising horses [1]; Phase III, 100, 150, 200 mg 90 min before, at 2 minutes of high intensity exercise, P<0.05): lower
- Markers of aerobic and anaerobic performance (exercising horses [1]; SRT, propylene glycol formulation): did not alter
- Effect on plasma lactate concentration (exercising horses [1]; SRTs, P>0.05): no effect
- Effect on plasma calcium concentration (exercising horses [1]; during the SRTs): no effect
- Effect on plasma glucose concentration (exercising horses [1]; during the SRTs): significant effect
- Mean clearance (CL) ([2]; IV 100 mg per horse): 19.5 ± 11.5 mL/min/kg
- Mean volume of distribution (V) ([2]; IV 100 mg per horse): 6.06 ± 3.99 L/kg
- Maximum concentration in urine ([2]; IV 100 mg per horse, range over six horses): 130 to 974 ng/mL
- Concentration in urine at 36 hours post-dose ([2]; above quantitation limit for four of the six horses): > 3 ng/mL
- Collection interval of maximum urine concentration ([2]; all six horses): 12-hour post-dose collection
- Mean Tmax ([2]; plasma, IV 100 mg per horse): 0.195 ± 0.020 h
- Mean area under the concentration-time curve extrapolated to infinity (AUC0-∞) ([2]; plasma, IV 100 mg per horse): 217 ± 83.5 ng·h/mL
- Mean elimination half-life (T½) ([2]; plasma, IV 100 mg per horse): 4.42 ± 2.91 h
- Mean maximum concentration (Cmax) ±SD ([2]; plasma, IV 100 mg per horse, six horses): 295 ± 118 ng/mL
- Oxygen uptake compared to control (exercising horses [3]; [4]): not significantly different
- PAsO2 compared to control (exercising horses [3]; [4]): not significantly different
- Plasma lactate compared to control (exercising horses [3]; [4]): not significantly different
- Duration of pulmonary artery pressure reduction effect (exercising horses [3]; 100 mg (16006, containing meglumine), post-injection for SRT): at least 24 hours
- Oxygen uptake compared to control (exercising horses [3]; [5]): not significantly different
- PAsO2 compared to control (exercising horses [3]; [5]): not significantly different
- Plasma lactate compared to control (exercising horses [3]; [5]): not significantly different
- PA pressure during exercise, comparison of doses and times (exercising horses [3]; 100 mg dose given 90 minutes prior to exercise, propylene glycol formulation, P<0.05): lowest PA pressure
- Pulmonary artery pressures during intense exercise (exercising horses [3]; IV, propylene glycol formulation of Table 1, Phase II and III, most apparent at 2-minute point of high intensity run): substantially and significantly lower
- Effect on VO2 (exercising horses [3]; SRTs in Phase II and Phase III): no effect
- Pulmonary artery pressure after exercise at 48 hours (exercising horses [3]; about 100 mg E-4021 containing meglumine (FIG. 21)): lower than the control
- Pulmonary artery pressure compared to control (exercising horses [3]; single dose 100 mg (15005, meglumine formulation of Table 3) 90 minutes prior to SRT): reduces

Reference: US20220387433A1, “TYPE V PHOSPHODIESTERASE INHIBITOR COMPOSITIONS, METHODS OF MAKING THEM AND METHODS OF USING THEM IN PREVENTING OR TREATING ELEVATED PULMONARY VASCULAR PRESSURE OR PULMONARY HEMORRHAGES” (American Regent, Inc., priority 2019, published 2022)
